Results taken from the supplement of paper PMC10307832.

Key:
Test in all cases: relative viability (nuclei count vs DMSO), 5 days (fraction); higher = more cells survive
AT9283 + Lapatinib = compound: O=C(Nc1c[nH]nc1-c1nc2ccc(CN3CCOCC3)cc2[nH]1)NC1CC1 [AT9283] + CS(=O)(=O)CCNCc1ccc(-c2ccc3ncnc(Nc4ccc(OCc5cccc(F)c5)c(Cl)c4)c3c2)o1 [Lapatinib] (partner 2 µM)
In short: (§1)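 Values are medians from duplicate plates. Each reflects relative viability, defined as the nuclei count of treated wells over that of vehicle wells. Lung cancer cell lines in 1536-well plates were pin-tool dosed one day after seeding with one drug alone or with a fixed anchor-drug dose plus five library-drug doses (not always all listed) in √10 steps, then fixed, stained and imaged at 4× after 5 days.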

Erlotinib + Olaparib = compound: C#Cc1cccc(Nc2ncnc3cc(OCCOC)c(OCCOC)cc23)c1 [Erlotinib] + O=C(c1cc(Cc2n[nH]c(=O)c3ccccc23)ccc1F)N1CCN(C(=O)C2CC2)CC1 [Olaparib] (partner 8 µM)
In short: as §1

Erlotinib + Palbociclib = compound: C#Cc1cccc(Nc2ncnc3cc(OCCOC)c(OCCOC)cc23)c1 [Erlotinib] + CC(=O)c1c(C)c2cnc(Nc3ccc(N4CCNCC4)cn3)nc2n(C2CCCC2)c1=O [Palbociclib] (partner 0.5 µM)
In short: as §1

Erlotinib + Pictilisib = compound: C#Cc1cccc(Nc2ncnc3cc(OCCOC)c(OCCOC)cc23)c1 [Erlotinib] + CS(=O)(=O)N1CCN(Cc2cc3nc(-c4cccc5[nH]ncc45)nc(N4CCOCC4)c3s2)CC1 [Pictilisib] (partner 1 µM)
In short: as §1

Erlotinib + Lapatinib = compound: C#Cc1cccc(Nc2ncnc3cc(OCCOC)c(OCCOC)cc23)c1 [Erlotinib] + CS(=O)(=O)CCNCc1ccc(-c2ccc3ncnc(Nc4ccc(OCc5cccc(F)c5)c(Cl)c4)c3c2)o1 [Lapatinib] (partner 2 µM)
In short: as §1

Row | Cell Line | relative viability (AT9283 + Lapatinib; first compound 0.003 µM) | relative viability (AT9283 + Lapatinib; first compound 0.03 µM) | relative viability (AT9283 + Lapatinib; first compound 0.09487 µM) | relative viability (AT9283 + Lapatinib; first compound 0.3 µM) | relative viability (Erlotinib + Olaparib; first compound 0.02 µM) | relative viability (Erlotinib + Olaparib; first compound 0.2 µM) | relative viability (Erlotinib + Olaparib; first compound 0.6325 µM) | relative viability (Erlotinib + Olaparib; first compound 2 µM) | relative viability (Erlotinib + Palbociclib; first compound 0.02 µM) | relative viability (Erlotinib + Palbociclib; first compound 0.2 µM) | relative viability (Erlotinib + Palbociclib; first compound 0.6325 µM) | relative viability (Erlotinib + Palbociclib; first compound 2 µM) | relative viability (Erlotinib + Pictilisib; first compound 0.02 µM) | relative viability (Erlotinib + Pictilisib; first compound 0.2 µM) | relative viability (Erlotinib + Pictilisib; first compound 0.6325 µM) | relative viability (Erlotinib + Pictilisib; first compound 2 µM) | relative viability (Erlotinib + Lapatinib; first compound 0.02 µM) | relative viability (Erlotinib + Lapatinib; first compound 0.2 µM) | relative viability (Erlotinib + Lapatinib; first compound 0.6325 µM) | relative viability (Erlotinib + Lapatinib; first compound 2 µM)
1 | RERF-LC-KJ | 0.809 | 0.516 | 0.256 | 0.191 | 1 | 0.86 | 0.994 | 0.852 | 1.02 | 1.01 | 0.93 | 0.759 | 0.579 | 0.412 | 0.376 | 0.307 | 0.857 | 0.864 | 0.936 | 0.734
2 | NCI-H1944 | 0.731 | 0.598 | 0.271 | 0.204 | 0.396 | 0.311 | 0.382 | 0.304 | 0.331 | 0.242 | 0.264 | 0.231 | 0.357 | 0.304 | 0.346 | 0.33 | 0.79 | 0.65 | 1.05 | 0.816
3 | HOP-62 | 1.06 | 0.984 | 0.47 | 0.176 | 0.446 | 0.307 | 0.508 | 0.415 | 0.544 | 0.517 | 0.453 | 0.41 | 1.08 | 0.725 | 0.788 | 0.625 | 1.08 | 1.09 | 0.94 | 1.04
4 | NCI-H2228 | 1.06 | 0.367 | 0.115 | 0.141 | 0.678 | 0.701 | 0.537 | 0.604 | 0.805 | 0.739 | – | 0.572 | 0.385 | 0.405 | 0.351 | 0.348 | 0.946 | 1.31 | 1.31 | 0.891
5 | NCI-H358 | 0.413 | 0.192 | 0.176 | 0.16 | 0.583 | 0.599 | 0.403 | 0.199 | 0.132 | 0.146 | 0.109 | 0.108 | 0.319 | 0.313 | 0.303 | 0.28 | 0.379 | 0.421 | 0.519 | 0.452
6 | NCI-H1755 | 1.08 | 0.775 | 0.357 | 0.399 | 0.942 | 0.892 | 0.888 | 0.818 | 0.454 | 0.449 | 0.446 | 0.458 | 0.422 | 0.456 | 0.416 | 0.374 | – | 1.06 | 1.09 | 1.02
7 | NCI-H2126 | 0.748 | 0.737 | 0.66 | 0.296 | 0.872 | 0.851 | 0.729 | 0.718 | 0.381 | 0.364 | 0.349 | 0.367 | 0.505 | 0.396 | 0.4 | 0.379 | 0.771 | 0.763 | 0.788 | 0.727
8 | NCI-H520 | 0.77 | 0.295 | 0.21 | 0.196 | 0.413 | 0.343 | 0.37 | 0.335 | 0.202 | 0.223 | 0.272 | 0.311 | 0.262 | 0.279 | 0.335 | 0.298 | 0.825 | 0.759 | 0.913 | –
9 | NCI-H1793 | 0.743 | 0.273 | 0.16 | 0.256 | 0.819 | 0.391 | 0.686 | 0.436 | 0.252 | 0.241 | 0.247 | 0.241 | 0.272 | 0.386 | 0.306 | 0.302 | – | 0.517 | 0.916 | 0.591
10 | A-427 | 0.936 | 0.897 | 0.671 | 0.219 | 0.792 | 0.757 | 0.713 | 0.716 | 0.485 | 0.492 | 0.529 | 0.53 | 0.826 | 0.682 | 0.829 | 0.76 | 1.04 | 1.02 | 1.12 | 0.94
